Measurements: PMC10060354, “Discovery of a small molecule ligand of FRS2 that inhibits invasion and tumor growth” (Cellular Oncology, 2022)
≈ marks a conversion by molar mass, not a printed value. Like-named read-outs stand apart in the source and are kept apart here.

Columns and labels:
DAOY cells = assay: Spheroid invasion assay (SIA), bFGF-induced collagen I invasion; assay type: cell-based, human; details: for functional activity in SIA (result in words): DAOY, bFGF-induced, 1, 5 and 10 µM
Description: 1000—2500 cells/well in 100 μl were seeded in 96 well Corning® Spheroid microplate (CLS4520, Sigma-Aldrich) or in cell-repellent 96 well microplate (650,790, Greiner Bio-one). SIA and analysis was performed as described before. In brief: After spheroid formation (24 – 72 h after seeding), 70 µl medium was removed and replaced with the collagen mixture (2.5 mg/ml Pure Col Collagen I (Advanced Biomatrix)), DMEM 1x (from 10 × stock, Sigma, D2429) and 0.4% Sodium bicarbonate (Sigma, S8761)), resulting in a final collagen concentration of 1.75 mg/ml. Embedded spheroids were stimulated with bFGF (100 ng/ml if not otherwise stated), HGF (30 ng /ml) or EGF (20 ng/ml) and distance of invaded cells quantified 24 – 48 h after embedding. Compounds and BGJ398 were added in Dimethylsulfoxid (DMSO) and corresponding DMSO concentrations were used in control samples.

[1] = CaCo-2 permeability (bi-directional); details: human
Description: Caco-2 cells obtained from the ATCC were used between passage numbers 40—60. Cells were seeded onto Millipore Multiscreen Transwell plates at 1 × 10^5 cells/cm^2. The cells were cultured in DMEM and media was changed every two or three days. On day 20, the permeability study was performed. […] Cells were then incubated with HBSS at the desired pH in both apical and basolateral compartments for 40 min to stabilize physiological parameters.
The fluorescent integrity marker lucifer yellow was also included in the dosing solution. Analytical standards were prepared from test compound DMSO dilutions and transferred to buffer, maintaining a 1% v/v DMSO concentration.
For assessment of A-B permeability, HBSS was removed from the apical compartment and replaced with test compound dosing solution. The apical compartment insert was then placed into a companion plate containing fresh buffer (containing 1% v/v DMSO). For assessment of B-A permeability, HBSS was removed from the companion plate and replaced with test compound dosing solution. Fresh buffer (containing 1% v/v DMSO) was added to the apical compartment insert, which was then placed into the companion plate.
Compound permeability was assessed in duplicate. Compounds of known permeability characteristics were run as controls on each assay plate.
Test and control compounds were quantified by LC–MS/MS cassette analysis using a 7-point calibration with appropriate dilution of the samples. The starting concentration (C0) was determined from the dosing solution and the experimental recovery calculated from C0 and both apical and basolateral compartment concentrations. The integrity of the monolayer throughout the experiment was checked by monitoring lucifer yellow permeation using fluorimetric analysis.
The permeability coefficient (Papp) for each compound was calculated from the following equation: Papp=dQ/dtC0×A where dQ/dt was the rate of permeation of the drug across the cells, C0 was the donor compartment concentration at time zero and A was the area of the cell monolayer. C0 was obtained from analysis of the dosing solution.
Efflux ratio (ER) was calculated from mean A-B and B-A data. This was derived from: ER=Papp(B-A)Papp(A-B)

[2] = Semi-thermodynamic solubility; assay type: physicochemical; details: for solubility: Room Temp, Overnight, LC-MSMS; for solubility thermodynamic: overnight; for solubility thermodynamic / Solubility (class in words): summary sheet
Description: In vitro ADME-T assays were performed by Cyprotex (Cyprotex Discovery, Cheshire, UK). […] The solution was agitated at ambient temperature overnight. The solutions were then centrifuged for 30 min at 3000 rpm at RT. The supernatant was removed and centrifuged for a further 30 min under the same conditions. An aliquot of the resulting supernatant was diluted in 50% methanol in water (containing an internal standard for MS analysis) prior to analysis by LC–MS/MS. […] These stocks were diluted in 50% methanol in water (containing an internal standard for MS analysis) prior to analysis by LC–MS/MS. The solubility of the shortlisted hits was calculated from a linear or quadratic fit of the standard curve.

[3] = Microsomal metabolic stability; assay type: in vitro ADME; details: human, pooled liver microsomes; for half-life at 1 µM: pH 7.4, liver microsomes, read-out: t1/2; for microsomal CLint at 1 µM: pH 7.4, read-out: Metabolic stability - Intrinsic clearance (CI)
Description: Pooled liver microsomes were purchased from Xenotech (H0500) and were stored according to manufacturer’s instructions prior to use. […] A minus co-factor control incubation was included for each compound tested where 0.1 M phosphate buffer pH 7.4 was added instead of NADPH. Two control compounds were included with each species. All incubations were performed singularly for each shortlisted hit. Each compound was incubated for 0, 5, 15, 30 and 45 min. The minus co-factor was incubated for 45 min only. The reactions were stopped by transferring incubate into acetonitrile at the appropriate time points in a 1:3 ratio. The termination plates were centrifuged at 3000 rpm for 20 min at 4 °C to precipitate the protein. Following protein precipitation, the supernatant were combined in cassette of up to 4 compounds, internal standard for MS analysis was added and samples were analyzed using LC–MS/MS. From a plot of In peak area ratio (compound peak area/internal standard peak area) against time, the gradient of the lines were determined. Subsequently, half-life and intrinsic clearance were calculated using the following equations. Eliminationrateconstant(k)=(-gradient)Half-life(t1/2)(min)=0.693/kIntrinsicclearance(CLint)(μl/min/mgprotein)=Vx0.693/t1/2 where V = Incubation volume (µl) / Microsomal protein (mg)

[4] = Cell viability (cytotoxicity, MTT) using HepG2; assay type: cell-based, human; details: human, HepG2 cells
Description: (§1) HepG2 human hepatocellular carcinoma cells were plated on 96-well tissue culture polystyrene plates for 24 h prior to dosing of the cells. The shortlisted hits were diluted in DMSO and serial dilutions are made 1% DMSO in growth media. Compounds at 8 concentrations in triplicate was then incubated for 72 h. Appropriate blanks and controls were run alongside the assay. One h prior to the end of the incubation period, the cells were loaded with MTT [yellow; 3-(4,5-dimethyl-2-thiazolyl)-2,5-diphenyl-2H-tetrazolium bromide], the plates were dried and re-solubilized using DMSO. The plates were then scanned at 570 nm using a plate reader.
(§2) The minimum effective concentration was determined from the lowest concentration whose mean value exceeds the significance level, provided either a clear dose–response relationship was observed, or at least two consecutive concentration points were above the significance level.

[5] = system: HepG2 human hepatocellular carcinoma cells; assay: Cell viability (cytotoxicity, MTT) using HepG2; assay type: cell-based; details: for MEC: 72h, 3 replicas, NR = No response (Summary sheet); for MTT (MEC) Minimum effective concentration: 72 h, summary sheet
Description: as §1, §2

[6] = Caco-2, Mean Papp A-B, Caco-2, summary sheet
[7] = Caco-2, Mean Papp B-A, Caco-2, summary sheet
[8] = Caco-2, pH 7.4, Mean % Recovery A2B, HBSS/HBSS, pH 7.4/7.4
[9] = Caco-2, pH 7.4, Mean % Recovery B2A, HBSS/HBSS, pH 7.4/7.4
[10] = Caco-2, pH 7.4, Mean Papp A2B, HBSS/HBSS, pH 7.4/7.4
[11] = Caco-2, pH 7.4, Mean Papp B2A, HBSS/HBSS, pH 7.4/7.4
[12] = Caco-2, pH 7.4, Papp A2B Replicate 1, HBSS/HBSS, pH 7.4/7.4
[13] = Caco-2, pH 7.4, Papp B2A Replicate 1, HBSS/HBSS, pH 7.4/7.4
[14] = Caco-2, pH 7.4, Papp B2A Replicate 2, HBSS/HBSS, pH 7.4/7.4
[15] = PBS, aqueous buffer, thermodynamic from solid, read-out: Mean Solubility
[16] = PBS, aqueous buffer, thermodynamic from solid, read-out: Solubility Replicate 1
[17] = PBS, aqueous buffer, thermodynamic from solid, read-out: Solubility Replicate 2
[18] = PBS, aqueous buffer, thermodynamic from solid, read-out: Solubility Replicate 3
[19] = PBS, aqueous buffer, thermodynamic from solid, read-out: Solubility Replicate 4
[20] = aqueous buffer, thermodynamic from solid, PBS
[21] = 72 h, summary sheet, read-out: MTT (AC50) Conc at which 50% of maximum efficacy is reached
[22] = 72h, 3 replicas, NR = No response (Summary sheet), read-out: AC50

| efflux ratio at 120 min, 10 μM ([1]; Caco-2) | Papp A→B at 120 min, 10 μM [1, 6] | Papp B→A at 120 min, 10 μM [1, 7] | efflux ratio at 120 min, 10 μM ([1]; Caco-2, pH 7.4) | recovery at 120 min, 10 µM [1, 8] | recovery at 120 min, 10 µM [1, 9] | Papp A→B at 120 min, 10 μM [1, 10] | Papp B→A at 120 min, 10 μM [1, 11] | Papp A→B at 120 min, 10 μM [1, 12] | Papp B→A at 120 min, 10 μM [1, 13] | Papp B→A at 120 min, 10 μM [1, 14] | solubility [2, 15] | solubility [2, 16] | solubility [2, 17] | solubility [2, 18] | solubility [2, 19] | solubility thermodynamic [2, 20] | Solubility (class in words) [2] | SMILES | functional activity in SIA (result in words) (DAOY cells) | MEC [5] | other results |
| --- | --- | --- | --- | --- | --- | --- | --- | --- | --- | --- | --- | --- | --- | --- | --- | --- | --- | --- | --- | --- | --- |
| 4 | 1.11 ×10⁻⁶ cm/s | 4.46 ×10⁻⁶ cm/s | 4 | 6.59% | 50.6% | 1.11 ×10⁻⁶ cm/s | 4.46 ×10⁻⁶ cm/s | 1.12 ×10⁻⁶ cm/s | 5.88 ×10⁻⁶ cm/s | 3.04 ×10⁻⁶ cm/s | 1.25 µM (≈ 0.443 µg/mL) | 1.26 µM (≈ 0.447 µg/mL) | 1.12 µM (≈ 0.397 µg/mL) | 1.21 µM (≈ 0.429 µg/mL) | 1.4 µM (≈ 0.496 µg/mL) | 1.25 µM (≈ 0.443 µg/mL) | Sligthly | CC1(C)Cc2cccc(OCC(=O)Nc3nc4ccccc4s3)c2O1 [Compound E25] | comparable inhibition of invasion | 42.6 µM | EC50 (DAOY cells; Homo sapiens, Daoy, DAOY cells, n = 3 technical replicas, read-out: EC50 for the inhibition of bFGF-induced collagen I invasion): 7.51 µM; Papp A→B at 120 min, 10 μM ([1]; Caco-2, pH 7.4, Papp A2B Replicate 2, HBSS/HBSS, pH 7.4/7.4): 1.11 ×10⁻⁶ cm/s; half-life at 1 µM [3]: 0.552 min; microsomal CLint at 1 µM [3]: 2510 µL/min/mg; AC50 at 72 h [4, 21]: 58.7 µM; MTT (MEC) Minimum effective concentration [5]: 42.6 µM |
|  |  |  |  |  |  |  |  |  |  |  |  |  |  |  |  |  |  | CN(C)CCCN1c2ccccc2Sc2ccc(Cl)cc21 [Chlorpromazine, reference compound] |  | 10.7 µM | AC50 at 72 h [4, 22]: 12.9 µM |
| 36.9 | 0.3 ×10⁻⁶ cm/s | 11.1 ×10⁻⁶ cm/s | 36.9 | 30% | 8.82% | 0.3 ×10⁻⁶ cm/s | 11.1 ×10⁻⁶ cm/s | 0.3 ×10⁻⁶ cm/s | 11.5 ×10⁻⁶ cm/s | 10.6 ×10⁻⁶ cm/s | 2.18 µM (≈ 0.649 µg/mL) | 1.95 µM (≈ 0.581 µg/mL) |  | 2.79 µM (≈ 0.831 µg/mL) | 1.79 µM (≈ 0.533 µg/mL) | 2.18 µM (≈ 0.649 µg/mL) | Sligthly | Oc1cc(Cl)cc2c1NC(c1ccccc1)C1CC=CC21 (stereo not drawn) [Compound 11] | reduced effect compared to its parent compound 3.18 at all concentrations | 14.2 µM | half-life at 1 µM [3]: 2.83 min; microsomal CLint at 1 µM [3]: 490 µL/min/mg; AC50 at 72 h [4, 21]: 19.6 µM; MTT (MEC) Minimum effective concentration [5]: 14.2 µM |
|  |  |  |  |  |  |  |  |  |  |  |  |  |  |  |  |  |  | N#CC(C#N)=NNc1cccc(Cl)c1 [carbonyl cyanide 3-chlorophenylhydrazone, reference compound] |  | 4.22 µM | AC50 at 72 h [4, 22]: 6.66 µM |
|  |  |  |  |  |  |  |  |  |  |  | 29.8 µM (≈ 14.3 µg/mL) | 34.3 µM (≈ 16.4 µg/mL) | 24.2 µM (≈ 11.6 µg/mL) | 29.6 µM (≈ 14.2 µg/mL) | 31.2 µM (≈ 15 µg/mL) |  |  | COC(=O)C1=C(C)NC(C)=C(C(=O)OCCN(C)Cc2ccccc2)C1c1cccc([N+](=O)[O-])c1 (stereo not drawn) [nicardipine, reference compound] |  |  |  |
|  |  |  |  |  |  |  |  |  |  |  |  | > 100 µM |  |  |  |  |  | CC(=O)CC(c1ccccc1)c1c(O)c2ccccc2oc1=O (stereo not drawn) [warfarin, reference compound] |  |  | solubility ([2]; read-out: Mean Solubility): >100 µM; solubility ([2]; read-out: Solubility Replicate 2): >100 µM; solubility ([2]; read-out: Solubility Replicate 3): >100 µM; solubility ([2]; read-out: Solubility Replicate 4): >100 µM |
